19 compounds from patent US7084155B2, “Chemokine receptor binding heterocyclic compounds” (AnorMED, priority 2000, dated 2006) can be followed below.

What all share (type): cell-based
The subject of one test is HIV-1 NL4.3 or IIIB. In words: Inhibition of HIV-1 (NL4.3 or IIIB, CXCR4 using) replication in MT-4 cells, MTT viability. To be noted: Human immunodeficiency virus 1, IIIB, MT4, concentration protecting 50% of virus-infected cells against viral cytopathicity. On the procedure: Assay for Inhibition of HIV-1 (NL4.3) Replication in MT-4 Cells Inhibition of HIV-1 NL4.3 (or IIIB, CXCR4 using) replication assays were performed as previously described (Bridger et al. J. Med. Chem. 1999, 42, 3971-3981; De […] et al. Proc. Natl. Acad. Sci, 1992, 89, 5286-5290; De […] et al. Antimicrob. Agents Chemother. 1994, 38, 668-674; Bridger et al. J. Med. Chem. 1995, 38, 366-378; Schols et al. J. Exp. Med., 1997, 186, 1383-1388). Anti-HIV activity and cytotoxicity measurements were carried out in parallel. They were based on the viability of MT-4 cells that had been infected with HIV in the presence of various concentrations of the test compounds. After the MT-4 cells were allowed to proliferate for 5 days, the number of viable cells was quantified by a tetrazolium-based colorimetric 3-(4,5-dimethylthiazol-2-yl)-2,5-diphenyltetrazolium bromide (MTT) procedure in 96-well microtrays. In all of these assays, viral input (viral multiplicity of infection, MOI) was 0.01, or 100 times the 50% cell culture infective dose (CCID50). The EC50 was defined as the concentration required to protect 50% of the virus-infected cells against viral cytopathicity.

In the next test the test system is HIV-1 BaL. In words: Inhibition of HIV-1 BaL (CCR5 using) replication in PHA-stimulated PBMC's, viral p24 antigen expression. To be noted: Human immunodeficiency virus 1, BAL.
Test [1] deals with SDF-1 induced Ca flux in SUP-T1 cells. Kind of test: Inhibition of chemokine (SDF-1) induced Ca flux measured on a FLIPR. To be noted: Homo sapiens. Here is the method:
Inhibition of Chemokine Induced Ca Flux Measured on a FLIPR (Molecular Devices) Loading dye: Fluo-3, AM (Molecular Probes F-1241) is dissolved in anhydrous DMSO and stored frozen in aliquots. To increase the solubility of the dye in the loading medium, 10% (w/v) pluronic acid (Molecular Probes F-127) is added to the Fluo-3 stock solution immediately before use. HBSS+20 mM Hepes buffer+0.2% BSA, pH 7.4. HBSS 10× [(w/o phenol red and sodium bicarbonate (Gibco 14 065–049)]; Hepes buffer 1M (Gibco 15 630–056), BSA (Sigma A3675). The flux buffer is vacuum-filtered and stored refrigerated for a maximum of 5 days. Before use in the experiment, the buffer is warmed at 37° C. in a waterbath. The test compounds were diluted in flux buffer to the desired concentration and added to 4 wells of a black microplate (4 parallel measurements per compound). The following control wells were used: 100% response control (no inhibition), flux buffer was added; 100% inhibition control: chemokine was added at 5-times the concentration required to induce a Ca flux. The chemokines are diluted in flux buffer to concentrations that are 4-fold higher than the desired concentrations required for stimulation of the cells (i.e. 2.5 nM for SDF-1[…] and 0.6 nM for RANTES). The chemokines were added to untreated 96-well Sero well compound plates (International Medical, Sterilin code 611F96). In the negative control well's (baseline monitoring), flux buffer is added instead of chemokine. As a positive control to check for dye loading efficiency, 20 μM digitonin (final concentration) was also included. The agonist plate was incubated in the FLIPR (37° C.) for 15–30 min. Cell Loading Protocol for Measuring Inhibition of SDF-1[…] Induced Ca Flux in SUP-T1 Cells. SUP-T1 cells were centrifuged at room temperature (RT) and re-suspended in loading medium (RPMI-1640 containing 2% FBS and 4 μM Fluo-3, AM). The cells were incubate at room temperature for 45 min. then washed twice in flux buffer then incubated in flux buffer at room temperature for 10 min. The cells were centrifuged and re-suspended in flux buffer at a density of 3×10^6 cells per mL. A 100 uL aliquot of the cell suspension (3×10^5 cells) was added to each well of a black microplate (Costar 3603), which already contains 50 uL of a solution of the test compound (at concentrations that are 3-fold higher than the desired final compound concentrations). The microplate is then gently centrifuged at room temperature. Homogeneous spreading of the cells on the bottom of the microplate wells was then confirmed with a microscope and the microplate was incubated in the FLIPR (37° C.) for 10 min. prior to testing. Fluorescence Measurements as a Function of Time on the FLIPR The FLIPR settings (camera exposure time and laser power) are adjusted to obtain initial fluorescence values between 8,000 and 10,000 units. After monitoring a 20 second-baseline, the agonist (chemokine) (50 uL) is added by automatic pipettor with black pipette tips. Fluorescence is measured simultaneously in all wells of the microplate every 2 seconds (first 2 min) and thereafter every 6 seconds (additional 2 min). The average ca-flux measured in each set of 4 identical wells (one test compound) was calculated by the FLIPR software.

Turning to `c1ccc(CNCc2ccc(CN(Cc3ncc(-c4ccc5c(c4)CCCC5)[nH]3)C3CCCc4cccnc43)cc2)nc1` (stereo not shown) [Example 32, N-(2-Pyridinylmethyl)-N′-[5-(5,6,7,8-tetrahydronaphthalen-2-yl)-1H-imidazol-2-ylmethyl]-N′-(5,6,7,8-tetrahydro-8-quinolinyl)-1,4-benzenedimethanamine], the EC50 in the test with HIV-1 NL4.3 or IIIB and in the test on HIV-1 BaL was below 20 µg/mL in each case.

As to `COc1c(Br)cccc1-c1cnc(CN(Cc2ccc(CNCc3ccccn3)cc2)C2CCCc3cccnc32)[nH]1` (stereo not shown) [Example 33, N-(2-Pyridinylmethyl)-N′-[5-(3-Bromo-2-methoxy-phenyl)-1H-imidazol-2-ylmethyl]-N′-(5,6,7,8-tetrahydro-8-quinolinyl)-1,4-benzenedimethanamine], the EC50 in the test with HIV-1 NL4.3 or IIIB and in the test on HIV-1 BaL was below 20 µg/mL throughout. With `Cc1ccc2nc(CN(Cc3ccc(CNCc4ccccn4)cc3)C3CCCc4cccnc43)oc2c1` (stereo not shown) [Example 17, N-(2-pyridinylmethyl)-N′-(6-methylbenzoxazol-2-ylmethyl)-N′-(5,6,7,8-tetrahydro-8-quinolinyl)-1,4-benzenedimethanamine], the EC50 in the test with HIV-1 NL4.3 or IIIB and with HIV-1 BaL was below 20 µg/mL in each case. Turning to `c1ccc(CNCc2ccc(CN(Cc3nc4ccccc4o3)C3CCCc4cccnc43)cc2)nc1` (stereo not shown) [Example 8, N-(2-pyridinylmethyl)-N′-(benzoxazol-2-ylmethyl)-N′-(5,6,7,8-tetrahydro-8-quinolinyl)-1,4-benzenedimethanamine], the EC50 in the test with HIV-1 NL4.3 or IIIB and in the test with HIV-1 BaL was below 20 µg/mL each time. With `FC(F)(F)c1cccc2nc(CN(Cc3ccc(CNCc4ccccn4)cc3)C3CCCc4cccnc43)[nH]c12` (stereo not shown) [Example 5, N-(2-pyridinylmethyl)-N′-(4-trifluoromethyl-1-H-benzimidazol-2-ylmethyl)-N′-(5,6,7,8-tetrahydro-8-quinolinyl)-1,4-benzenedimethanamine], in test [1], the inhibition (usually the drop in the measured response relative to a control, in per cent) at 20 µg/mL is above 20%. The EC50 (usually the concentration giving half of the maximal effect) in the test on HIV-1 NL4.3 or IIIB was below 20 µg/mL.

As to `c1ccc(CNCc2ccc(CN(CCc3nc4ccccc4[nH]3)C3CCCc4cccnc43)cc2)nc1` (stereo not shown) [Example 23], the inhibition at 20 µg/mL in test [1] is above 20%. This compound returned an EC50 in the test on HIV-1 NL4.3 or IIIB below 20 µg/mL. For `c1ccc(CNCc2ccc(CN(Cc3nc4cccnc4[nH]3)C3CCCc4cccnc43)cc2)nc1` (stereo not shown) [Example 10, N-(2-pyridinylmethyl)-N′-[(1H)-4-azabenzimidazol-2-ylmethyl]-N′-(5,6,7,8-tetrahydro-8-quinolinyl)-1,4-benzenedimethanamine], in that order: above 20% and below 20 µg/mL. As to `c1ccc(-c2ccc(-c3cnc(CN(Cc4ccc(CNCc5ccccn5)cc4)C4CCCc5cccnc54)[nH]3)cc2)cc1` (stereo not shown) [Example 31, N-(2-Pyridinylmethyl)-N′-(4-(4-biphenyl)-1H-imidazol-2-ylmethyl)-N′-(5,6,7,8-tetrahydro-8-quinolinyl)-1,4-benzenedimethanamine], the EC50 in the test with HIV-1 NL4.3 or IIIB and with HIV-1 BaL was below 20 µg/mL each time. In test [1], `c1ccc(CNCc2ccc(CN(CCCn3cnc4ccccc43)C3CCCc4cccnc43)cc2)nc1` (stereo not shown) [Example 38, N-(2-pyridinylmethyl)-N′-[3-(benzimidazol-1-yl)prop-1-yl]-N′-(5,6,7,8-tetrahydro-8-quinolinyl)-1,4-benzenedimethanamine] registered an inhibition at 20 µg/mL above 20%. Besides, the EC50 in the test with HIV-1 NL4.3 or IIIB was below 20 µg/mL. For `Fc1cccc2nc(CN(Cc3ccc(CNCc4ccccn4)cc3)C3CCCc4cccnc43)[nH]c12` (stereo not shown) [Example 21, N-(2-pyridinylmethyl)-N′-(4-fluorobenzimidazol-2-ylmethyl)-N′-(5,6,7,8-tetrahydro-8-quinolinyl)-1,4-benzenedimethanamine], in that order: above 20% and below 20 µg/mL. For `CC1(N(Cc2ccc(CNCc3ccccn3)cc2)Cc2nc3ccccc3[nH]2)CCCc2cccnc21` (stereo not shown) [Example 42, N-(2-pyridinylmethyl)-N′-(1H-benzimidazol-2-ylmethyl)-N′-(8-methyl-5,6,7,8-tetrahydro-8-quinolinyl)-1,4-benzenedimethanamine], the inhibition at 20 µg/mL in test [1] was above 20%. Also, the EC50 in the test with HIV-1 NL4.3 or IIIB is below 20 µg/mL. For `O=C(c1ccccc1)c1ccc2[nH]c(CN(Cc3ccc(CNCc4ccccn4)cc3)C3CCCc4cccnc43)nc2c1` (stereo not shown) [Example 9, N-(2-pyridinylmethyl)-N′-(5-benzoyl-1H-benzimidazol-2-ylmethyl)-N′-(5,6,7,8-tetrahydro-8-quinolinyl)-1,4-benzenedimethanamine], in that order: above 20% and below 20 µg/mL. Compound `c1ccc(CNCc2ccc(CN(CCn3cnc4ccccc43)C3CCCc4cccnc43)cc2)nc1` (stereo not shown) [Example 37, N-(2-pyridinylmethyl)-N′-[2-(benzimidazol-1-yl)eth-1-yl]-N′-(5,6,7,8-tetrahydro-8-quinolinyl)-1,4-benzenedimethanamine] yielded a concentration for a half-maximal effect (EC50) with HIV-1 BaL below 20 µg/mL. `c1ccc(CNCc2ccc(CN(Cc3nc4ccccc4[nH]3)C3CCOc4cccnc43)cc2)nc1` (stereo not shown) [Example 40, N-(2-pyridinylmethyl)-N′-(1-H-benzimidazol-2-ylmethyl)-N′-(3,4-dihydro-2H-pyrano[3,2-b]pyridinyl)-1,4-benzenedimethanamine]: the inhibition at 20 µg/mL in test [1] was above 20%. This compound also returned an EC50 in the test on HIV-1 NL4.3 or IIIB below 20 µg/mL. Take `c1ccc(CNCc2ccc(CN(Cc3cc4ccccc4[nH]3)C3CCCc4cccnc43)cc2)nc1` (stereo not shown) [Example 19, N-(2-pyridinylmethyl)-N′-(indol-2-ylmethyl)-N′-(5,6,7,8-tetrahydro-8-quinolinyl)-1,4-benzenedimethanamine]: the EC50 in the test with HIV-1 NL4.3 or IIIB and with HIV-1 BaL was below 20 µg/mL throughout. In test [1], `Brc1cccc(CNCc2ccc(CN(Cc3nc4ccccc4[nH]3)C3CCCc4cccnc43)cc2)n1` (stereo not shown) [Example 57, N-(6-bromo-2-pyridinylmethyl)-N′-(1H-benzimidazol-2-ylmethyl)-N′-(5,6,7,8-tetrahydro-8-quinolinyl)-1,4-benzenedimethanamine] yielded an inhibition at 20 µg/mL above 20%. This compound returned an EC50 in the test on HIV-1 NL4.3 or IIIB below 20 µg/mL. For `Fc1ccc2nc(CN(Cc3ccc(CNCc4ccccn4)cc3)C3CCCc4cccnc43)[nH]c2c1` (stereo not shown) [Example 3, N-(2-pyridinylmethyl)-N′-(5-fluoro-1-H-benzimidazol-2-ylmethyl)-N′-(5,6,7,8-tetrahydro-8-quinolinyl)-1,4-benzenedimethanamine], in that order: above 20% and below 20 µg/mL. Take `c1ccc(CNCc2ccc(CN(CCCc3nc4ccccc4[nH]3)C3CCCc4cccnc43)cc2)nc1` (stereo not shown) [Example 24, N-(2-pyridinylmethyl)-N′-[3-(1H-benzimidazol-2-yl)prop-1-yl]-N′-(5,6,7,8-tetrahydro-8-quinolinyl)-1,4-benzenedimethanamine]: the inhibition at 20 µg/mL in test [1] is above 20%. In addition, the EC50 with HIV-1 NL4.3 or IIIB was below 20 µg/mL. Take `Clc1ccc2[nH]c(CN(Cc3ccc(CNCc4ccccn4)cc3)C3CCCc4cccnc43)nc2c1` (stereo not shown) [Example 11, N-(2-pyridinylmethyl)-N′-[5-chloro-1H-benzimidazol-2-ylmethyl]-N′-(5,6,7,8-tetrahydro-8-quinolinyl)-1,4-benzenedimethanamine]: in test [1], the inhibition at 20 µg/mL was above 20%. In the test on HIV-1 NL4.3 or IIIB, this compound showed an EC50 below 20 µg/mL.
